Source: ChEMBL document CHEMBL4627246, “Pyroglutamide-Based P2X7 Receptor Antagonists Targeting Inflammatory Bowel Disease” (J Med Chem, 2020)

Key:
Format in all cases: cell-based
UACC-62 = test: Cytotoxicity against human UACC62 cells assessed as effect on cell growth at 10 uM incubated for 48 hrs by sulforhodamine B assay; details: uacc-62, 48 h
786-0 = test: Cytotoxicity against human 786-0 cells assessed as effect on cell growth at 10 uM incubated for 48 hrs by sulforhodamine B assay; details: 786-0, 48 h
OVCAR-8 = test: Cytotoxicity against human OVCAR8 cells assessed as effect on cell growth at 10 uM incubated for 48 hrs by sulforhodamine B assay; details: ovcar-8, 48 h
UO-31 = test: Cytotoxicity against human UO31 cells assessed as effect on cell growth at 10 uM incubated for 48 hrs by sulforhodamine B assay; details: uo-31, 48 h
TK-10 = test: Cytotoxicity against human TK10 cells assessed as effect on cell growth at 10 uM incubated for 48 hrs by sulforhodamine B assay; details: tk-10, 48 h
T47D = test: Cytotoxicity against human T47D cells assessed as effect on cell growth at 10 uM incubated for 48 hrs by sulforhodamine B assay
MDA-MB-468 = test: Cytotoxicity against human MDA-MB-468 cells assessed as effect on cell growth at 10 uM incubated for 48 hrs by sulforhodamine B assay; details: mda-mb-468, 48 h
HCC 2998 = test: Cytotoxicity against human HCC2998 cells assessed as effect on cell growth at 10 uM incubated for 48 hrs by sulforhodamine B assay; details: hcc 2998, 48 h
OVCAR-5 = test: Cytotoxicity against human OVCAR5 cells assessed as effect on cell growth at 10 uM incubated for 48 hrs by sulforhodamine B assay; details: ovcar-5, 48 h
MCF7 = test: Cytotoxicity against human MCF7 cells assessed as effect on cell growth at 10 uM incubated for 48 hrs by sulforhodamine B assay; details: mcf7, 48 h
DU-145 = test: Cytotoxicity against human DU145 cells assessed as effect on cell growth at 10 uM incubated for 48 hrs by sulforhodamine B assay; details: du-145, 48 h
A498 = test: Cytotoxicity against human A498 cells assessed as effect on cell growth at 10 uM incubated for 48 hrs by sulforhodamine B assay; details: a498, 48 h
OVCAR-3 = test: Cytotoxicity against human OVCAR3 cells assessed as effect on cell growth at 10 uM incubated for 48 hrs by sulforhodamine B assay; details: ovcar-3, 48 h
RXF 393 = test: Cytotoxicity against human RXF393 cells assessed as effect on cell growth at 10 uM incubated for 48 hrs by sulforhodamine B assay; details: rxf 393, 48 h
SF-539 = test: Cytotoxicity against human SF539 cells assessed as effect on cell growth at 10 uM incubated for 48 hrs by sulforhodamine B assay; details: sf-539, 48 h
HT-29 = test: Cytotoxicity against human HT-29 cells assessed as effect on cell growth at 10 uM incubated for 48 hrs by sulforhodamine B assay; details: ht-29, 48 h
SK-MEL-2 = test: Cytotoxicity against human SK-MEL-2 cells assessed as effect on cell growth at 10 uM incubated for 48 hrs by sulforhodamine B assay; details: sk-mel-2, 48 h
MDA-MB-435 = test: Cytotoxicity against human MDA-MB-435 cells assessed as effect on cell growth at 10 uM incubated for 48 hrs by sulforhodamine B assay; details: mda-mb-435, 48 h
HCT-116 = test: Cytotoxicity against human HCT116 cells assessed as effect on cell growth at 10 uM incubated for 48 hrs by sulforhodamine B assay; details: hct-116, 48 h
SNB-19 = test: Cytotoxicity against human SNB19 cells assessed as effect on cell growth at 10 uM incubated for 48 hrs by sulforhodamine B assay; details: snb-19, 48 h

Measured: Activity

COc1ccc(CNC(=O)[C@@H]2CCC(=O)N2Cc2ccc(Cl)cc2Cl)c(OC)c1
Non-Toxic: all assays above

COc1ccc(N2C(=O)CC[C@H]2C(=O)NCc2ccc(Cl)cc2Cl)cc1
Non-Toxic: all assays above

O=C(NCc1ccc(Cl)cc1Cl)[C@@H]1COC(=O)N1c1cccs1
Non-Toxic: all assays above

O=C(NCc1ccc(Cl)cc1Cl)[C@@H]1CCC(=O)N1C(c1ccc(Cl)cc1)c1ccc(Cl)cc1
Non-Toxic: all assays above

CN1CCN(/C=C2\C[C@@H](C(=O)NCc3ccc(Cl)cc3Cl)N(c3cccs3)C2=O)CC1
Non-Toxic: all assays above

O=C(NCc1ccc(Cl)cc1Cl)[C@@H]1CCC(=O)N1c1cncs1
Non-Toxic: all assays above

CN1C(=O)C(C)(C)C[C@H]1C(=O)NCc1cccc(C(F)(F)F)c1Cl
Non-Toxic: all assays above

O=C(NCc1ccccc1Cl)[C@@H]1CCC(=O)N1c1ccccc1
Non-Toxic: all assays above

O=C1CCCC(C(=O)NCc2ccc(Cl)cc2Cl)N1 (stereo not given)
Non-Toxic: all assays above
